Laboratory results as given in PubChem BioAssay (NCI).
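48-hour exposure; five concentrations; linearly interpolated endpoints. Abbreviation: GI50, concentration required for 50% inhibition of growth. TGI: total growth inhibition.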

Assays:
Assay in all cases: DTP human tumour cell line panel, 48 h
NCI-H522 lung = tested on: NCI-H522 lung
SF-295 CNS = tested on: SF-295 CNS
IGROV1 ovarian = tested on: IGROV1 ovarian
SR leukemia = tested on: SR leukemia
A498 renal = tested on: A498 renal
OVCAR-4 ovarian = tested on: OVCAR-4 ovarian
OVCAR-3 ovarian = tested on: OVCAR-3 ovarian
UO-31 renal = tested on: UO-31 renal
SK-MEL-5 melanoma = tested on: SK-MEL-5 melanoma
HCC-2998 colon = tested on: HCC-2998 colon
HOP-92 NSCLC = tested on: HOP-92 NSCLC
SF-268 CNS = tested on: SF-268 CNS
U251 CNS = tested on: U251 CNS
NCI-H23 lung = tested on: NCI-H23 lung
CCRF-CEM leukemia = tested on: CCRF-CEM leukemia
KM12 colon = tested on: KM12 colon
HT29 colon = tested on: HT29 colon
CAKI-1 renal = tested on: CAKI-1 renal
NCI/ADR-RES ovarian = tested on: NCI/ADR-RES ovarian
ACHN renal = tested on: ACHN renal
DU-145 prostate = tested on: DU-145 prostate
A549 NSCLC = tested on: A549 NSCLC
COLO 205 colon = tested on: COLO 205 colon
SN12C renal = tested on: SN12C renal
HS 578T breast = tested on: HS 578T breast
MDA-MB-231 breast = tested on: MDA-MB-231 breast
BT-549 breast = tested on: BT-549 breast
MDA-MB-435 = tested on: MDA-MB-435
SW-620 colon = tested on: SW-620 colon
HL-60(TB) leukemia = tested on: HL-60(TB) leukemia
MCF7 breast = tested on: MCF7 breast
TK-10 renal = tested on: TK-10 renal
UACC-257 melanoma = tested on: UACC-257 melanoma
LOX IMVI melanoma = tested on: LOX IMVI melanoma
SK-OV-3 ovarian = tested on: SK-OV-3 ovarian
NCI-H460 lung = tested on: NCI-H460 lung
T-47D breast = tested on: T-47D breast
NCI-H226 lung = tested on: NCI-H226 lung
OVCAR-5 ovarian = tested on: OVCAR-5 ovarian
HCT-116 colon = tested on: HCT-116 colon
OVCAR-8 ovarian = tested on: OVCAR-8 ovarian
K-562 leukemia = tested on: K-562 leukemia
SF-539 CNS = tested on: SF-539 CNS
RPMI-8226 leukemia = tested on: RPMI-8226 leukemia
RXF 393 renal = tested on: RXF 393 renal
SNB-75 CNS = tested on: SNB-75 CNS
SK-MEL-28 melanoma = tested on: SK-MEL-28 melanoma
HOP-62 NSCLC = tested on: HOP-62 NSCLC
786-0 renal = tested on: 786-0 renal
HCT-15 colon = tested on: HCT-15 colon
SNB-19 CNS = tested on: SNB-19 CNS

Cc1cc(Nc2ncc(F)c(N[C@H]3[C@@H](C(N)=O)[C@@H]4C=C[C@H]3C4)n2)ccc1N1CCN(C)CC1
GI50 (NCI-H522 lung): 0.0436 µM | TGI (NCI-H522 lung): 3.35 µM | GI50 (SF-295 CNS): < 0.0177 µM | TGI (SF-295 CNS): 12.7 µM | GI50 (IGROV1 ovarian): 0.0302 µM | TGI (IGROV1 ovarian): 18.8 µM | GI50 (SR leukemia): < 0.01 µM | TGI (SR leukemia): 2.32 µM | GI50 (A498 renal): < 0.0116 µM | TGI (A498 renal): 0.0693 µM | GI50 (OVCAR-4 ovarian): 1.6 µM | TGI (OVCAR-4 ovarian): 3.22 µM | GI50 (OVCAR-3 ovarian): 1.48 µM | TGI (OVCAR-3 ovarian): 3.15 µM | GI50 (UO-31 renal): 0.0393 µM | TGI (UO-31 renal): 4.64 µM | GI50 (SK-MEL-5 melanoma): 1.97 µM | TGI (SK-MEL-5 melanoma): 6.79 µM | GI50 (HCC-2998 colon): 2.15 µM | TGI (HCC-2998 colon): 6.18 µM | GI50 (HOP-92 NSCLC): 0.0249 µM | TGI (HOP-92 NSCLC): 0.327 µM | GI50 (SF-268 CNS): 0.107 µM | TGI (SF-268 CNS): 6.68 µM | GI50 (U251 CNS): 0.0694 µM | TGI (U251 CNS): 4.8 µM | GI50 (NCI-H23 lung): 1.51 µM | TGI (NCI-H23 lung): 7.15 µM | GI50 (CCRF-CEM leukemia): < 0.01 µM | TGI (CCRF-CEM leukemia): 6.03 µM | GI50 (KM12 colon): 0.208 µM | TGI (KM12 colon): 11.5 µM | GI50 (HT29 colon): 0.0471 µM | GI50 (CAKI-1 renal): 0.0217 µM | TGI (CAKI-1 renal): 14 µM | GI50 (NCI/ADR-RES ovarian): 0.348 µM | TGI (NCI/ADR-RES ovarian): 8.57 µM | GI50 (ACHN renal): 0.0178 µM | TGI (ACHN renal): 12.9 µM | GI50 (DU-145 prostate): 0.455 µM | TGI (DU-145 prostate): 17.7 µM | GI50 (A549 NSCLC): < 0.01 µM | TGI (A549 NSCLC): 2.32 µM | GI50 (COLO 205 colon): < 0.01 µM | TGI (COLO 205 colon): < 0.0326 µM | GI50 (SN12C renal): 0.0328 µM | TGI (SN12C renal): 11.5 µM | GI50 (HS 578T breast): 0.0274 µM | TGI (HS 578T breast): 0.33 µM | GI50 (MDA-MB-231 breast): 0.124 µM | TGI (MDA-MB-231 breast): 1.73 µM | GI50 (BT-549 breast): 0.0765 µM | TGI (BT-549 breast): 1.15 µM | GI50 (MDA-MB-435): 1.49 µM | TGI (MDA-MB-435): 15.6 µM | GI50 (SW-620 colon): 0.0218 µM | TGI (SW-620 colon): 8.5 µM | GI50 (HL-60(TB) leukemia): 2.96 µM | TGI (HL-60(TB) leukemia): 11.4 µM | GI50 (MCF7 breast): 0.0599 µM | TGI (MCF7 breast): 3.23 µM | GI50 (TK-10 renal): 0.0225 µM | TGI (TK-10 renal): 1.96 µM | GI50 (UACC-257 melanoma): 4.07 µM | TGI (UACC-257 melanoma): 18.1 µM | GI50 (LOX IMVI melanoma): 0.0249 µM | TGI (LOX IMVI melanoma): 1.29 µM | GI50 (SK-OV-3 ovarian): 0.0368 µM | TGI (SK-OV-3 ovarian): 2.22 µM | GI50 (NCI-H460 lung): 0.0101 µM | TGI (NCI-H460 lung): 4.21 µM | GI50 (T-47D breast): 6.74 µM | TGI (T-47D breast): 26.7 µM | GI50 (NCI-H226 lung): < 0.0156 µM | TGI (NCI-H226 lung): 2.85 µM | GI50 (OVCAR-5 ovarian): 0.0405 µM | TGI (OVCAR-5 ovarian): > 20.4 µM | GI50 (HCT-116 colon): 0.0199 µM | TGI (HCT-116 colon): 7.81 µM | GI50 (OVCAR-8 ovarian): 0.133 µM | TGI (OVCAR-8 ovarian): 6.34 µM | GI50 (K-562 leukemia): 0.416 µM | TGI (K-562 leukemia): > 100 µM | GI50 (SF-539 CNS): 0.0362 µM | TGI (SF-539 CNS): 0.586 µM | GI50 (RPMI-8226 leukemia): 1.86 µM | TGI (RPMI-8226 leukemia): 6.85 µM | GI50 (RXF 393 renal): 0.0165 µM | TGI (RXF 393 renal): 0.187 µM | GI50 (SNB-75 CNS): < 0.0153 µM | TGI (SNB-75 CNS): 0.167 µM | GI50 (SK-MEL-28 melanoma): 4.28 µM | TGI (SK-MEL-28 melanoma): 17.7 µM | GI50 (HOP-62 NSCLC): 0.134 µM | TGI (HOP-62 NSCLC): 2.56 µM | GI50 (786-0 renal): 0.0688 µM | TGI (786-0 renal): 5.25 µM | GI50 (HCT-15 colon): 0.0374 µM | TGI (HCT-15 colon): 16 µM | GI50 (SNB-19 CNS): 0.725 µM | TGI (SNB-19 CNS): 8.75 µM
